PubChem BioAssay (NCI)
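1) Cells in 96-well plates. 2) Compound, 48 h, 5 concentrations. 3) Linear interpolation between surrounding doses. 4) Unreached endpoint = highest concentration. Abbreviation: GI50, concentration required for 50% inhibition of growth. TGI is the concentration that stops growth completely.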

What was measured:
Assay in all cases: inhibition of tumour cell growth, NCI panel, 48 h
SF-539 CNS = system: SF-539 CNS
CCRF-CEM leukemia = system: CCRF-CEM leukemia
EKVX NSCLC = system: EKVX NSCLC
MALME-3M melanoma = system: MALME-3M melanoma
HT29 colon = system: HT29 colon
MCF7 breast = system: MCF7 breast
NCI-H522 lung = system: NCI-H522 lung
HL-60(TB) leukemia = system: HL-60(TB) leukemia
MDA-N = system: MDA-N
PC-3 prostate = system: PC-3 prostate
SF-295 CNS = system: SF-295 CNS
NCI-H226 lung = system: NCI-H226 lung
IGROV1 ovarian = system: IGROV1 ovarian
MDA-MB-231 breast = system: MDA-MB-231 breast
LOX IMVI melanoma = system: LOX IMVI melanoma
HCT-15 colon = system: HCT-15 colon
A549 NSCLC = system: A549 NSCLC
M14 melanoma = system: M14 melanoma
BT-549 breast = system: BT-549 breast
HOP-62 NSCLC = system: HOP-62 NSCLC
KM12 colon = system: KM12 colon
SN12C renal = system: SN12C renal
ACHN renal = system: ACHN renal
A498 renal = system: A498 renal
UO-31 renal = system: UO-31 renal
SW-620 colon = system: SW-620 colon
DU-145 prostate = system: DU-145 prostate
NCI/ADR-RES ovarian = system: NCI/ADR-RES ovarian
SK-MEL-2 melanoma = system: SK-MEL-2 melanoma
SNB-75 CNS = system: SNB-75 CNS
U251 CNS = system: U251 CNS
SF-268 CNS = system: SF-268 CNS
NCI-H460 lung = system: NCI-H460 lung
MOLT-4 leukemia = system: MOLT-4 leukemia
OVCAR-5 ovarian = system: OVCAR-5 ovarian
HOP-92 NSCLC = system: HOP-92 NSCLC
HCT-116 colon = system: HCT-116 colon
RPMI-8226 leukemia = system: RPMI-8226 leukemia
SNB-19 CNS = system: SNB-19 CNS
SK-MEL-5 melanoma = system: SK-MEL-5 melanoma
SK-MEL-28 melanoma = system: SK-MEL-28 melanoma
TK-10 renal = system: TK-10 renal
CAKI-1 renal = system: CAKI-1 renal
OVCAR-4 ovarian = system: OVCAR-4 ovarian
T-47D breast = system: T-47D breast
HCC-2998 colon = system: HCC-2998 colon
HS 578T breast = system: HS 578T breast
NCI-H23 lung = system: NCI-H23 lung
RXF 393 renal = system: RXF 393 renal
SK-OV-3 ovarian = system: SK-OV-3 ovarian
UACC-257 melanoma = system: UACC-257 melanoma
OVCAR-3 ovarian = system: OVCAR-3 ovarian
SR leukemia = system: SR leukemia
UACC-62 melanoma = system: UACC-62 melanoma
OVCAR-8 ovarian = system: OVCAR-8 ovarian
MDA-MB-435 = system: MDA-MB-435
786-0 renal = system: 786-0 renal
K-562 leukemia = system: K-562 leukemia
COLO 205 colon = system: COLO 205 colon

`CCOC(=O)/C=C(\C(=O)OCC)n1cc(C)c(=O)n(Cc2cnnn2CCCCOC(C)=O)c1=O` gave a TGI (SF-539 CNS) of 5.66 µM, a GI50 (CCRF-CEM leukemia) of 1.32 µM and a TGI (CCRF-CEM leukemia) of 4.71 µM. The TGI (EKVX NSCLC) was 25.2 µM, the TGI (MALME-3M melanoma) was 3.79 µM and the TGI (HT29 colon) was 21.3 µM. It also gave a TGI (MCF7 breast) of 21.5 µM, a TGI (NCI-H522 lung) of 3.33 µM and a TGI (HL-60(TB) leukemia) of 6.73 µM. The TGI (MDA-N) was 55.8 µM, the TGI (PC-3 prostate) was over 71.3 µM and the TGI (SF-295 CNS) was over 76 µM. The TGI (NCI-H226 lung) was 30.4 µM, the TGI (IGROV1 ovarian) was 28.1 µM and the TGI (MDA-MB-231 breast) was 50.2 µM. The TGI (LOX IMVI melanoma) was 18.9 µM, the TGI (HCT-15 colon) was over 25.2 µM and the TGI (A549 NSCLC) was 60.7 µM. For the same compound, the TGI (M14 melanoma) was 86.2 µM, the TGI (BT-549 breast) was 22.6 µM and the TGI (HOP-62 NSCLC) was over 68.1 µM. The TGI (KM12 colon) was 34.4 µM, the TGI (SN12C renal) was 39.3 µM and the TGI (ACHN renal) was 4.83 µM. For the same compound, the TGI (A498 renal) was 37.5 µM, the TGI (UO-31 renal) was 30 µM and the TGI (SW-620 colon) was over 38.4 µM. For the same compound, the TGI (DU-145 prostate) was over 55.8 µM, the TGI (NCI/ADR-RES ovarian) was 35.8 µM and the TGI (SK-MEL-2 melanoma) was 53 µM. For the same compound, the TGI (SNB-75 CNS) was 38.3 µM, the TGI (U251 CNS) was 49.2 µM and the TGI (SF-268 CNS) was 54.1 µM. For the same compound, the TGI (NCI-H460 lung) was 65.7 µM, the TGI (MOLT-4 leukemia) was over 25.6 µM and the TGI (OVCAR-5 ovarian) was 39.5 µM. It also gave a TGI (HOP-92 NSCLC) of 4.83 µM, a TGI (HCT-116 colon) of 22.7 µM and a TGI (RPMI-8226 leukemia) of over 26.7 µM. The TGI (SNB-19 CNS) was over 66.5 µM, the TGI (SK-MEL-5 melanoma) was over 52.2 µM and the TGI (SK-MEL-28 melanoma) was 25.1 µM. It also gave a TGI (TK-10 renal) of 13.7 µM, a TGI (CAKI-1 renal) of 8.73 µM and a TGI (OVCAR-4 ovarian) of 58 µM. The TGI (T-47D breast) was over 51 µM, the TGI (HCC-2998 colon) was 43.9 µM and the TGI (HS 578T breast) was over 66.4 µM. For the same compound, the TGI (NCI-H23 lung) was 36.8 µM, the TGI (RXF 393 renal) was 9.1 µM and the TGI (SK-OV-3 ovarian) was over 92.4 µM. The TGI (UACC-257 melanoma) was 31.7 µM, the TGI (OVCAR-3 ovarian) was 39.1 µM and the TGI (SR leukemia) was 5.86 µM. For the same compound, the TGI (UACC-62 melanoma) was 31.7 µM, the TGI (OVCAR-8 ovarian) was 15.6 µM and the TGI (MDA-MB-435) was 26.1 µM. For the same compound, the TGI (786-0 renal) was 28 µM and the TGI (K-562 leukemia) was over 35.9 µM.
`CCC1(C)N=C(c2cnccn2)NN1c1ccc(Cl)cc1` (configuration not stated) showed a TGI (SF-539 CNS) of over 100 µM, a TGI (CCRF-CEM leukemia) of 59.9 µM and a TGI (EKVX NSCLC) of over 100 µM. For the same compound, the TGI (COLO 205 colon) was over 100 µM, the TGI (MALME-3M melanoma) was over 100 µM and the TGI (HT29 colon) was over 100 µM. The TGI (MCF7 breast) was over 100 µM, the TGI (NCI-H522 lung) was over 100 µM and the TGI (HL-60(TB) leukemia) was over 100 µM. The TGI (MDA-N) was over 100 µM, the TGI (PC-3 prostate) was over 100 µM and the TGI (SF-295 CNS) was over 100 µM. The TGI (NCI-H226 lung) was over 100 µM, the TGI (IGROV1 ovarian) was over 100 µM and the TGI (MDA-MB-231 breast) was over 100 µM. The TGI (LOX IMVI melanoma) was over 100 µM, the TGI (HCT-15 colon) was over 100 µM and the TGI (A549 NSCLC) was over 100 µM. The TGI (M14 melanoma) was over 100 µM, the TGI (BT-549 breast) was over 100 µM and the TGI (HOP-62 NSCLC) was over 100 µM. For the same compound, the TGI (KM12 colon) was over 100 µM, the TGI (SN12C renal) was 72.3 µM and the TGI (ACHN renal) was over 100 µM. For the same compound, the TGI (A498 renal) was over 100 µM, the TGI (UO-31 renal) was over 100 µM and the TGI (SW-620 colon) was over 100 µM. It also gave a TGI (DU-145 prostate) of over 100 µM, a TGI (NCI/ADR-RES ovarian) of over 100 µM and a TGI (SK-MEL-2 melanoma) of over 100 µM. The TGI (SNB-75 CNS) was over 100 µM, the TGI (U251 CNS) was over 100 µM and the TGI (SF-268 CNS) was over 100 µM. For the same compound, the TGI (NCI-H460 lung) was over 100 µM, the TGI (MOLT-4 leukemia) was over 100 µM and the TGI (OVCAR-5 ovarian) was over 100 µM. It also gave a TGI (HOP-92 NSCLC) of over 100 µM, a TGI (HCT-116 colon) of over 100 µM and a TGI (RPMI-8226 leukemia) of over 100 µM. It also gave a TGI (SNB-19 CNS) of over 100 µM, a TGI (SK-MEL-5 melanoma) of over 100 µM and a TGI (SK-MEL-28 melanoma) of over 100 µM. It also gave a TGI (TK-10 renal) of over 100 µM, a TGI (CAKI-1 renal) of over 100 µM and a TGI (OVCAR-4 ovarian) of over 100 µM. For the same compound, the TGI (T-47D breast) was 74.5 µM, the TGI (HS 578T breast) was over 100 µM and the TGI (NCI-H23 lung) was over 100 µM. It also gave a TGI (RXF 393 renal) of over 100 µM, a TGI (SK-OV-3 ovarian) of over 100 µM and a TGI (UACC-257 melanoma) of 99.3 µM. For the same compound, the TGI (OVCAR-3 ovarian) was over 100 µM, the TGI (SR leukemia) was 76.2 µM and the TGI (UACC-62 melanoma) was over 100 µM. The TGI (OVCAR-8 ovarian) was over 100 µM, the TGI (MDA-MB-435) was over 100 µM and the TGI (786-0 renal) was over 100 µM. The TGI (K-562 leukemia) was over 100 µM.
